Results published in patent US12208088B2 (Genentech, Inc., priority 2018, dated 2025).
pKi: −log10 of the molar value.

Columns and labels:
[1] = system: primary human pan T cells; experiment: Human T-cell IL2 induction assay; assay type: cell-based; conditions: IL-2, anti-CD3/anti-CD28 stimulated T cells
Experimental: Example B3: Human T-Cell IL2 Induction Assay
Anti-CD3 and anti-CD28 activates TCR signaling in primary human pan T cells leading to IL-2 promoter induction. Secreted IL-2 in cell culture supernatant is detected by electrochemiluminescence using a capture antibody against IL-2 and an anti-IL-2 antibody labeled with SULFO-tag.
See www.mesoscale.com for additional electrochemiluminescence technology information.
Incubate primary human pan T cells with varying concentrations of test compounds for 30 minutes in a humidified incubator at 37° C. and 5% CO2. Transfer cells to a plate pre-coated with a fixed concentration of anti-human CD3 (determined separately for each donor lot) and add soluble anti-human CD28 (final concentration=1 μg/ml). Stimulate cells in a humidified incubator at 37° C. and 5% CO2 for 4 hours. Transfer 25 μl of supernatant to a MSD single spot plate pre-coated with an anti-human IL-2 antibody. Incubate MSD plate overnight at 4° C. with gentle shaking. Wash MSD plate 4× with wash buffer. Add SULFO-tagged detection antibody at a 1:50 dilution and incubate at room temperature shaking for 2 hours. Wash MSD plate 4× with wash buffer and add […] 2×MSD read buffer. Read on an MSD instrument. Normalize data to stimulated/untreated controls to calculate % activity at each concentration of compound.
• Frozen Primary Human Pan-T Cells (StemCell Technologies #70024) • anti-human CD3 (OKT3 clone) (eBioscience #16-0037-81) • anti-human CD28 (CD28.2 clone) (BD #555725) • 96-well Human IL-2 tissue culture kit (MSD #K151AHB-4) Instrumentation: • Biomek FX for liquid handling (Beckman Coulter) • MSD SECTOR S 600 (Meso Scale Discovery)
Exemplary compounds of Formula (I) were tested in the human T-cell IL-2 induction assays. The % increase measured for IL-2 in cells treated by the test compounds relative to untreated cells are provided in Table B2 for certain compounds.

HPK1 = HPK1 (Homo sapiens (Human), UniProt Q92918); experiment: HPK1 Lantha binding assay ("Lanth"); conditions: binding assays; Morrison Ki fit
Method in brief: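 TR-FRET binding competition using 2 nM HPK1, 2 nM Eu-anti-GST antibody and 15 nM Tracer222 at 23 °C. Compound was incubated 1 h with enzyme and antibody, then 1 h after tracer addition, with an 11-point 5-fold dilution series. Ki obtained from a Morrison fit that corrects for tracer concentration and Kd.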

Chain of HPK1 (Q92918 1-346 limits assumed): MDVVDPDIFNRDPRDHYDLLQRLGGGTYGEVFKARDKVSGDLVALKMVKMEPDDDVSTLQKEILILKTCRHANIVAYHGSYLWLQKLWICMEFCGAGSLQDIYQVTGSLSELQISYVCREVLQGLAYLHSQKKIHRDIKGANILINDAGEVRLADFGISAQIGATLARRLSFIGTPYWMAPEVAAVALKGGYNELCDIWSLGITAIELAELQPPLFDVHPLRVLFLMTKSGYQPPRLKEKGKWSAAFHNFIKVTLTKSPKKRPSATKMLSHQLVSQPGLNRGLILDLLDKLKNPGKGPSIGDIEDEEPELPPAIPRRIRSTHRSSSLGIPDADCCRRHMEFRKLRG

Question: With `Cc1c(CC#N)ccnc1-c1cc(N)cc(-c2cnc3c(c2Cl)[C@@]2(CC[C@@](C)(C#N)C2)CN3)c1` (stereo in doubt) [Compound 274b, (1S,3R)-5′-(3-Amino-5-(4-(cyanomethyl)-3-methylpyridin-2-yl)phenyl)-4′-chloro-3-methyl-1′,2′-dihydrospiro[cyclopentane-1,3′-pyrrolo[2,3-b]pyridine]-3-carbonitrile] as the compound, how does the “% IL relative to untreated cells” value ([1]; assayed concentration 0.926 μM) read?
Answer: 564%

Question: For `CC[C@H]1C[C@@]12CNc1ncc(-c3ccc(N)c(C(=O)N(C)C)c3F)cc12` [Compound 243a, 6-Amino-3-((1R,2S)-2-ethyl-1′,2′-dihydrospiro[cyclopropane-1,3′-pyrrolo[2,3-b]pyridin]-5′-yl)-2-fluoro-N,N-dimethylbenzamide], which “% IL relative to untreated cells” value ([1]; assayed concentration 2.8 μM) is on record?
Answer: 111%

Question: With `CN(C)C(=O)c1c(N)ccc(-c2cnc3c(c2Cl)[C@]2(CC[C@](C)(C#N)CC2)CN3)c1F` [Compound 250a, 6-Amino-3-((1s,4s)-4′-chloro-4-cyano-4-methyl-1′,2′-dihydrospiro[cyclohexane-1,3′-pyrrolo[2,3-b]pyridin]-5′-yl)-2-fluoro-N,N-dimethylbenzamide] as the compound, how does the pKi (HPK1) read?
Answer: 8.07

Question: What about the “% IL relative to untreated cells” value ([1]; assayed concentration 25 μM) of the same compound?
Answer: 504%

Question: With `CN(C)C(=O)c1c(N)ccc(-c2cnc3c(c2Cl)[C@]2(CC[C@@H](CO)C2)CN3)c1F` [Compound 259c, 6-Amino-3-((1R,3R)-4′-chloro-3-(hydroxymethyl)-1′,2′-dihydrospiro[cyclopentane-1,3′-pyrrolo[2,3-b]pyridin]-5′-yl)-2-fluoro-N,N-dimethylbenzamide] as the compound, how does the pKi (HPK1) read?
Answer: 8.52

Question: What about the “% IL relative to untreated cells” value ([1]; assayed concentration 8.3 μM) of the same compound?
Answer: 604%

Question: How did the “% IL relative to untreated cells” value ([1]; assayed concentration 0.926 μM) turn out when `Cc1c(CC#N)ccnc1-c1cccc(-c2cnc3c(c2Cl)[C@@]2(CC[C@@](C)(C(N)=O)C2)CN3)c1F` [Compound 267b, (1S,3R)-4′-Chloro-5′-(3-(4-(cyanomethyl)-3-methylpyridin-2-yl)-2-fluorophenyl)-3-methyl-1′,2′-dihydrospiro[cyclopentane-1,3′-pyrrolo[2,3-b]pyridine]-3-carboxamide] was run?
Answer: 298%

Question: With `CN(c1cc(C#N)cc2c(-c3cnc4c(c3)C3(CC3)CN4)c[nH]c12)S(C)(=O)=O` [Compound 340, N-(5-Cyano-3-(1′,2′-dihydrospiro[cyclopropane-1,3′-pyrrolo[2,3-b]pyridin]-5′-yl)-1H-indol-7-yl)-N-methylmethanesulfonamide] as the compound, how does the pKi (HPK1) read?
Answer: 7.83

Question: With `CN(c1cc(C#N)cc2c(-c3cnc4c(c3)C3(CC3)CN4)cn(C)c12)S(C)(=O)=O` [Compound 341, N-(5-Cyano-3-(1′,2′-dihydrospiro[cyclopropane-1,3′-pyrrolo[2,3-b]pyridin]-5′-yl)-1-methyl-1H-indol-7-yl)-N-methylmethanesulfonamide] as the compound, how does the pKi (HPK1) read?
Answer: 7.91

Question: How did the pKi (HPK1) turn out when `N#CCc1ccc2[nH]cc(-c3cnc4c(c3)C3(CC3)CN4)c2c1` [Compound 342, 2-(3-(1′,2′-Dihydrospiro[cyclopropane-1,3′-pyrrolo[2,3-b]pyridin]-5′-yl)-1H-indol-5-yl)acetonitrile] was run?
Answer: 7.13

Question: With `CN(c1ccc2c(-c3cnc4c(c3)C3(CC3)CN4)c[nH]c2c1)c1cnn(C)c1` [Compound 343, 3-(1′,2′-Dihydrospiro[cyclopropane-1,3′-pyrrolo[2,3-b]pyridin]-5′-yl)-N-methyl-N-(1-methyl-1H-pyrazol-4-yl)-1H-indol-6-amine] as the compound, how does the pKi (HPK1) read?
Answer: 7.13

Question: With `N#Cc1ccc2ccn(-c3cnc4c(c3)C3(CC3)CN4)c2c1` [Compound 344, 1-(1′,2′-Dihydrospiro[cyclopropane-1,3′-pyrrolo[2,3-b]pyridin]-5′-yl)-1H-indole-6-carbonitrile] as the compound, how does the pKi (HPK1) read?
Answer: 6.23

Question: With `Cn1cc(Nc2ccc3c(-c4cnc5c(c4)C4(CC4)CN5)c[nH]c3c2)cn1` [Compound 345, 3-(1′,2′-Dihydrospiro[cyclopropane-1,3′-pyrrolo[2,3-b]pyridin]-5′-yl)-N-(1-methyl-1H-pyrazol-4-yl)-1H-indol-6-amine] as the compound, how does the pKi (HPK1) read?
Answer: 7.03
